Earlier results on four compounds are cited in US20070066591A1, “Compounds, compositions, and methods” (priority 2003, published 2007).

What is called GI50 is the concentration that inhibits growth by half.

For this series, the system named is A549 cells. The settings on record: data provided by National Cancer Institute, Developmental Therapeutic Program.
In the case of `O=c1[nH]cc(F)c(=O)[nH]1` [5-fluorouracil], the GI50 is 1000 nM.
Regarding `COc1cccc2c1C(=O)c1c(O)c3c(c(O)c1C2=O)C[C@@](O)(C(=O)CO)C[C@@H]3O[C@H]1C[C@H](N)[C@H](O)[C@H](C)O1` [doxorubicin], the GI50 was 63 nM.
For `NC(=O)NO` [hydroxyurea], the GI50 is 500000 nM.
As to `CC(=O)O[C@H]1C(=O)[C@@]2(C)[C@H]([C@H](OC(=O)c3ccccc3)[C@]3(O)C[C@H](OC(=O)[C@H](O)[C@@H](NC(=O)c4ccccc4)c4ccccc4)C(C)=C1C3(C)C)[C@]1(OC(C)=O)CO[C@@H]1C[C@@H]2O` [paclitaxel], the GI50 is 4 nM.
